# According to PMC11269473, “Monoamine oxidase inhibition properties of 2,1-benzisoxazole derivatives” (Molecular Diversity, 2023):
# Like-named read-outs stand apart in the source and are kept apart here.
# Legend:
# recombinant human MAO-A [1] = target: T1, recombinant human MAO-A (Homo sapiens, UniProt P21397); test: MAO-A inhibition, IC50 determination with kynuramine as substrate (fluorescence of 4-hydroxyquinoline); assay type: biochemical; details: 50 µM kynuramine, mean ± SD of triplicate, NI = no inhibition observed at 100 µM
# T1 construct: purchased Sigma-Aldrich; host or cells: insect cells (microsomes)
# T1 sequence (P21397 1-527): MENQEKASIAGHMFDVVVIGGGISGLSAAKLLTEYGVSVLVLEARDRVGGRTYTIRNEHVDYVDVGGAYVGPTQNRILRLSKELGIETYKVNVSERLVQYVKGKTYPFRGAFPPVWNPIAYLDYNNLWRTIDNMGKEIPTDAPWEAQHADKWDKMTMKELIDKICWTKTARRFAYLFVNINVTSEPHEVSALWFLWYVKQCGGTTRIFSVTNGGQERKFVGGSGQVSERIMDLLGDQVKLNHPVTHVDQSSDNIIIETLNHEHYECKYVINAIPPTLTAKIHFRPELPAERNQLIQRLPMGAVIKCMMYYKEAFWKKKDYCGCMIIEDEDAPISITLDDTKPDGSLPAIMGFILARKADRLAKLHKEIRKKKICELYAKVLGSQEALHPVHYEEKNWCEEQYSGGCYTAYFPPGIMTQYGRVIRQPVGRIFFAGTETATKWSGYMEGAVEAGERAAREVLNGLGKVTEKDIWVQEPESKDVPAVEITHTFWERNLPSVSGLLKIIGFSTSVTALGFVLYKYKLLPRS
# Protocol: (§1) The MAO inhibition properties of the 2,1-benzisoxazole derivatives were investigated using the commercially available recombinant human MAO-A and MAO-B enzymes with kynuramine serving as substrate. MAO oxidizes kynuramine to yield 4-hydroxyquinoline, which was measured by fluorescence spectrophotometry.
# (§2) For the MAO inhibition studies, a Varian Cary Eclipse fluorescence spectrophotometer was employed. Microsomes from insect cells containing recombinant human MAO-A and MAO-B (5 mg protein/mL) and kynuramine dihydrobromide were obtained from Sigma-Aldrich.
# (§3) IC50 values for the inhibition of MAO were measured as described previously. Microsomes from insect cells containing recombinant human MAO-A and MAO-B (5 mg protein/mL) served as enzyme sources (Sigma-Aldrich) while kynuramine was used as non-specific MAO substrate. The enzyme reactions (200 µL reactions prepared in 96-well microtiter plates) contained phosphate buffer (100 mM, pH 7.4), 50 µM kynuramine and the test inhibitors at concentrations of 0.003–100 µM. […] The reactions were initiated with addition of MAO-A (0.0075 mg protein/mL) or MAO-B (0.015 mg protein/mL) and after 20 min of incubation at 37 °C, the reactions were terminated by the addition of 80 µL NaOH (2 N). The concentration of 4-hydroxyquinoline, the product of kynuramine oxidation by MAO, was measured by fluorescence spectrophotometry (λex = 310 nm; λem = 400 nm). IC50 values were estimated from sigmoidal plots of enzyme catalytic rate versus the inhibitor concentration (log[I]) which were constructed with the Prism software package (GraphPad). IC50 values were estimated in triplicate determinations from these plots and are expressed as mean ± standard deviation (SD).
# recombinant human MAO-B [2] = target: T2, recombinant human MAO-B (Homo sapiens, UniProt P27338); test: MAO-B inhibition, IC50 determination with kynuramine as substrate (fluorescence of 4-hydroxyquinoline); assay type: biochemical; details: for SI (selectivity index): SI = IC50(MAO-A)/IC50(MAO-B); for IC50: recombinant human MAO-B, 50 µM kynuramine, mean ± SD of triplicate, NI = no inhibition observed at 100 µM
# T2 construct: purchased Sigma-Aldrich; host or cells: insect cells (microsomes)
# T2 sequence (P27338 1-520): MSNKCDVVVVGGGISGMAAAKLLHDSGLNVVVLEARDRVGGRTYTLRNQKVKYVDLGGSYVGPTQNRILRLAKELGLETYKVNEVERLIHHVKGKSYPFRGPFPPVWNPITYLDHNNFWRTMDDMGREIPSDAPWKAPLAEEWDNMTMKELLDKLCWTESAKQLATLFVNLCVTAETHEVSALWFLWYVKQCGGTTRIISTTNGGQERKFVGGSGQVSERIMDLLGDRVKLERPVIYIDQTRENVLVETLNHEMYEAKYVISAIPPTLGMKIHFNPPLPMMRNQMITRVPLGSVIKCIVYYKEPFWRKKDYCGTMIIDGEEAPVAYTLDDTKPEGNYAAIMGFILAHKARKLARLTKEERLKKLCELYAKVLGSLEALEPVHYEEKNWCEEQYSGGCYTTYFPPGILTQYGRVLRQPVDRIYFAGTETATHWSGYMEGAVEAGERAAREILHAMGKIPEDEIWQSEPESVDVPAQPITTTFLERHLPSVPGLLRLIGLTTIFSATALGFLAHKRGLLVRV
# Protocol: as §1, §2
# as §3, with “The” for “The reactions were initiated with addition of MAO-A (0.0075 mg protein/mL) or MAO-B (0.015 mg protein/mL) and after 20 min of incubation at 37 °C, the reactions were terminated by the addition of 80 µL NaOH (2 N). The”
# recombinant human MAO-B [3] = target: T2, recombinant human MAO-B; test: Lineweaver–Burk plots / mode of MAO-B inhibition and Ki; assay type: biochemical
# Protocol: (§4) These two compounds represent potent MAO inhibitors among the study compounds. […] Each line of the Lineweaver–Burk plots was constructed with the kynuramine concentration ranging from 15 to 250 μM.
# (§5) The insets are replots of the slopes of the Lineweaver–Burk plots versus inhibitor concentration. The Ki value equals the negative of the x-axis intercept when y = 0
# (§6) IC50 values for the inhibition of MAO were measured as described previously. Microsomes from insect cells containing recombinant human MAO-A and MAO-B (5 mg protein/mL) served as enzyme sources (Sigma-Aldrich) while kynuramine was used as non-specific MAO substrate. The enzyme reactions (200 µL reactions prepared in 96-well microtiter plates) contained phosphate buffer (100 mM, pH 7.4), 50 µM kynuramine and the test inhibitors at concentrations of 0.003–100 µM. Stock solutions of the test inhibitors were dissolved in DMSO and added to the enzyme reactions to give a final DMSO concentration of 4% (v/v). The reactions were initiated with addition of MAO-A (0.0075 mg protein/mL) or MAO-B (0.015 mg protein/mL) and after 20 min of incubation at 37 °C, the reactions were terminated by the addition of 80 µL NaOH (2 N). The concentration of 4-hydroxyquinoline, the product of kynuramine oxidation by MAO, was measured by fluorescence spectrophotometry (λex = 310 nm; λem = 400 nm). IC50 values were estimated from sigmoidal plots of enzyme catalytic rate versus the inhibitor concentration (log[I]) which were constructed with the Prism software package (GraphPad). IC50 values were estimated in triplicate determinations from these plots and are expressed as mean ± standard deviation (SD).
# (§7) For each line, the concentration of kynuramine ranged from 15–250 µM.
# recombinant human MAO-A [4] = target: T1, recombinant human MAO-A; test: Lineweaver–Burk plots / mode of MAO-A inhibition and Ki; assay type: biochemical
# Protocol: as §4, §5, §6, §7
# human MAO-B = target: human MAO-B; parameters: method as in PMID 21175212; details: competitive inhibitor; cited from earlier work
# [5] = Lineweaver–Burk lines intersect on the y-axis
Compound,IC50 (recombinant human MAO-A [1]) [µM],SI (selectivity index) (recombinant human MAO-B [2]),IC50 (recombinant human MAO-B [2]) [µM],mode of MAO-B inhibition (recombinant human MAO-B [3]; [5]),"Ki (recombinant human MAO-B [3]; global (shared) fitting of the inhibition data, read-out: Ki, MAO-B, global (shared) fitting to the Michaelis–Menten equation) [µM]","Ki (recombinant human MAO-B [3]; replot of slopes versus inhibitor concentration, Ki = −x when y = 0, kynuramine 15–250 µM, read-out: Ki, MAO-B, from replot of slopes of Lineweaver–Burk plots) [µM]",melting point [°C],mode of MAO-A inhibition (recombinant human MAO-A [4]; [5]),"Ki (recombinant human MAO-A [4]; global (shared) fitting of the inhibition data, read-out: Ki, MAO-A, global (shared) fitting to the Michaelis–Menten equation) [µM]","Ki (recombinant human MAO-A [4]; replot of slopes versus inhibitor concentration, Ki = −x when y = 0, kynuramine 15–250 µM, read-out: Ki, MAO-A, from replot of slopes of Lineweaver–Burk plots) [µM]",Ki (human MAO-B) [µM]
"N#Cc1ccc(-c2onc3c(Cl)cc(Cl)cc23)cc1 [Compound 7a, 4-(5,7-Dichlorobenzo[c]isoxazol-3-yl)benzonitrile]",19 ± 1.2,1138,0.017 ± 0.0045,competitive,0.01 ± 0.0015,0.0062,240 to 241,–,–,–,–
"NS(=O)(=O)Cc1noc2ccccc12 [Zonisamide, zonisamide]",–,–,–,–,–,–,–,–,–,–,3.1
"Clc1ccc2noc(-c3ccc(Br)cc3)c2c1 [Compound 3m, 3-(4-Bromophenyl)-5-chlorobenzo[c]isoxazole]",83.2 ± 33.3,71,1.18 ± 0.022,–,–,–,230 to 232,–,–,–,–

# Further lines, with some results ahead:
IC50 (recombinant human MAO-A [1]) [µM],SI (selectivity index) (recombinant human MAO-B [2]),IC50 (recombinant human MAO-B [2]) [µM],mode of MAO-B inhibition (recombinant human MAO-B [3]; [5]),"Ki (recombinant human MAO-B [3]; global (shared) fitting of the inhibition data, read-out: Ki, MAO-B, global (shared) fitting to the Michaelis–Menten equation) [µM]","Ki (recombinant human MAO-B [3]; replot of slopes versus inhibitor concentration, Ki = −x when y = 0, kynuramine 15–250 µM, read-out: Ki, MAO-B, from replot of slopes of Lineweaver–Burk plots) [µM]",melting point [°C],mode of MAO-A inhibition (recombinant human MAO-A [4]; [5]),"Ki (recombinant human MAO-A [4]; global (shared) fitting of the inhibition data, read-out: Ki, MAO-A, global (shared) fitting to the Michaelis–Menten equation) [µM]","Ki (recombinant human MAO-A [4]; replot of slopes versus inhibitor concentration, Ki = −x when y = 0, kynuramine 15–250 µM, read-out: Ki, MAO-A, from replot of slopes of Lineweaver–Burk plots) [µM]",Compound,Ki (human MAO-B) [µM]
5.35 ± 0.211,0.20,27.3 ± 2.16,–,–,–,137 to 138,competitive,0.5 ± 0.024,0.46,"c1ccc(-c2onc3ccc(C4OCCO4)cc23)cc1 [Compound 3l, 5-(1,3-Dioxolan-2-yl)-3-phenylbenzo[c]isoxazole]",–
> 100,–,25.1 ± 2.41,–,–,–,175 to 177,–,–,–,"CC1(c2ccc3noc(-c4cccc(Cl)c4)c3c2)OCCO1 [Compound 3f, 3-(3-Chlorophenyl)-5-(2-methyl-1,3-dioxolan-2-yl)benzo[c]isoxazole]",–
